molecular target: T1, Citrate synthase, peroxisomal [1-24] (Saccharomyces cerevisiae, UniProt P08679); assay: CIT2-GFP expression modulators in yeast, SAR follow-up, flow cytometry, cherry pick 3, dose response (AID 488825); details: not given
T1 construct: 1-24
T1 sequence (P08679 1-24): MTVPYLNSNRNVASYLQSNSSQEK

EC50 [µM]	Compound
74.1	Cc1nc(Nc2ccc(Br)cc2Br)c([N+](=O)[O-])c(=O)[nH]1 [6-[[2,4-bis(bromanyl)phenyl]amino]-2-methyl-5-nitro-1H-pyrimidin-4-one]

same assay, conditions: inactive by the depositor's call

EC50 [µM]	Compound
128	CCC(C)Nc1nc(N)c([N+](=O)[O-])c(Nc2ccccc2OC)n1 (stereo unspecified) [SMR000434817]
300	O=C(O)c1ccc2cccc(O)c2n1 [8-oxidanylquinoline-2-carboxylic acid]
3680	Cc1ccc(C(=O)Nc2nc(-c3ccccn3)cs2)o1 [5-methyl-N-[4-(2-pyridinyl)-2-thiazolyl]-2-furancarboxamide]
19800	Oc1c(Cl)cc(Cl)c2cccnc12 [AS-229]
58	COc1ccccc1-c1cc(C(F)(F)F)nc(S(=O)(=O)CCCC(=O)O)n1 [4-[4-(2-methoxyphenyl)-6-(trifluoromethyl)pyrimidin-2-yl]sulfonylbutanoic acid]

Source: BindingDB's records for doi:10.7270/Q2QN6575 (Nmmlsc, 2011)
